Assay results taken from ChEMBL document CHEMBL1255183, “Role of the phenolic hydroxyl group in the biological activities of simplified analogue of aplysiatoxin with antiproliferative activity” (Bioorg Med Chem Lett, 2010).

Columns and labels:
[1] = Cytotoxicity against human RXF631L cells; type: functional; settings: RXF 631
[2] = system: SF-539; assay: Cytotoxicity against human SF539 cells; type: functional
[3] = system: Raji; assay: Induction of EBA-early antigen production in human Raji cells at 10^-7 M; type: cell-based; settings: human gammaherpesvirus 4
[4] = system: SK-OV-3; assay: Cytotoxicity against human SKOV3 cells; type: functional
[5] = system: OVCAR-4; assay: Cytotoxicity against human OVCAR4 cells; type: functional
[6] = molecular target: T1, Protein kinase C epsilon type (Homo sapiens, UniProt Q02156); assay: Inhibition of [3H]PDBu binding to PKCepsilon C1B peptide
T1 sequence (Q02156 whole entry): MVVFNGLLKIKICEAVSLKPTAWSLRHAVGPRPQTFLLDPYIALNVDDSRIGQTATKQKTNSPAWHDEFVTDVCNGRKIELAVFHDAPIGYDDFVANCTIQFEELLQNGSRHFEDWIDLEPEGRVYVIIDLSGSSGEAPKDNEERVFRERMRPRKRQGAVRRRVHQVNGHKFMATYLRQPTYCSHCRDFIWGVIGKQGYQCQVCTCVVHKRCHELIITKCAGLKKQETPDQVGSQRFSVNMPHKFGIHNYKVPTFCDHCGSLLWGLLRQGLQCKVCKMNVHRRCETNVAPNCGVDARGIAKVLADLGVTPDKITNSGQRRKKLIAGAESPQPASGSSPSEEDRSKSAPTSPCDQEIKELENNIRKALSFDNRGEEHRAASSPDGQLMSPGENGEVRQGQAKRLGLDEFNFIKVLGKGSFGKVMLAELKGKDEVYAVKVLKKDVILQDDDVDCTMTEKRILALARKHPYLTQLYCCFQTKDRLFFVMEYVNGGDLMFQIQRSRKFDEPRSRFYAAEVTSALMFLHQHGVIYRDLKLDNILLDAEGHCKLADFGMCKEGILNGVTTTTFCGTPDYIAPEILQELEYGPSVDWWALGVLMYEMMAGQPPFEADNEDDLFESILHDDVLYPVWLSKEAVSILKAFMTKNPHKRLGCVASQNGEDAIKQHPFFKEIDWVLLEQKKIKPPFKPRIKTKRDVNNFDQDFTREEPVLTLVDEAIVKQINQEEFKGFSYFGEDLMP

[7] = molecular target: Protein kinase C alpha type (Homo sapiens, UniProt P17252); assay: Inhibition of [3H]PDBu binding to PKC alpha C1A peptide
[8] = system: St-4; assay: Cytotoxicity against human St-4 cells; type: functional
[9] = system: MKN-7; assay: Cytotoxicity against human MKN7 cells; type: functional
[10] = molecular target: T2, Protein kinase C delta type (Homo sapiens, UniProt Q05655); assay: Inhibition of [3H]PDBu binding to PKC delta C1A peptide
[11] = molecular target: T2, Protein kinase C delta type; assay: Inhibition of [3H]PDBu binding to PKC delta C1B peptide
[12] = system: OVCAR-8; assay: Cytotoxicity against human OVCAR8 cells; type: functional
[13] = system: A549; assay: Cytotoxicity against human A549 cells; type: functional
[14] = system: HCC 2998; assay: Cytotoxicity against human HCC2998 cells; type: functional
[15] = system: DU-145; assay: Cytotoxicity against human DU145 cells; type: functional
[16] = system: LOX IMVI; assay: Cytotoxicity against human LOXIMVI cells; type: functional
[17] = molecular target: Protein kinase C gamma type (Homo sapiens, UniProt P05129); assay: Inhibition of [3H]PDBu binding to PKC gamma C1A peptide
[18] = system: NCI-H460; assay: Cytotoxicity against human NCI-H460 cells; type: functional
[19] = system: Raji; assay: Inhibition of TPA-induced EBA-early antigen production in human Raji cells at 10^-7 M; type: cell-based; parameters: scale not given: the % may be the effect or the level left; settings: human gammaherpesvirus 4
[20] = Cytotoxicity against human Raji cells assessed as viability at 10^-7 M; type: cell-based; settings: read-out: Activity
[21] = system: Raji; assay: Induction of EBA-early antigen production in human Raji cells at 1 uM; type: cell-based; settings: human gammaherpesvirus 4
[22] = molecular target: Protein kinase C beta type (Homo sapiens, UniProt P05771); assay: Inhibition of [3H]PDBu binding to PKC beta C1A peptide
[23] = system: NCI-H226; assay: Cytotoxicity against human NCI-H226 cells; type: functional
[24] = Cytotoxicity against human Raji cells assessed as viability at 1 uM; type: cell-based; settings: read-out: Activity
[25] = molecular target: Protein kinase C theta type (Homo sapiens, UniProt Q04759); assay: Inhibition of [3H]PDBu binding to PKCtheta C1B peptide
[26] = system: U-251; assay: Cytotoxicity against human U251 cells; type: functional
[27] = system: HCT-116; assay: Cytotoxicity against human HCT116 cells; type: functional
[28] = Cytotoxicity against human Raji cells assessed as viability at 10^-7 M in presence of TPA; type: cell-based; settings: read-out: Activity
[29] = molecular target: Protein kinase C eta type (Homo sapiens, UniProt P24723); assay: Inhibition of [3H]PDBu binding to PKCeta C1B peptide
[30] = Cytotoxicity against human HBC4 cells; type: functional
[31] = system: MDA-MB-231; assay: Cytotoxicity against human MDA-MB-231 cells; type: functional
[32] = system: SF-295; assay: Cytotoxicity against human SF295 cells; type: functional
[33] = Cytotoxicity against human BSY1 cells; type: functional; settings: BSY-1
[34] = system: PC-3; assay: Cytotoxicity against human PC3 cells; type: functional
[35] = system: ACHN; assay: Cytotoxicity against human ACHN cells; type: functional
[36] = system: DMS-273; assay: Cytotoxicity against human DMS273 cells; type: functional
[37] = system: SNB-78; assay: Cytotoxicity against human SNB78 cells; type: functional
[38] = system: Raji; assay: Inhibition of TPA-induced EBA-early antigen production in human Raji cells at 1 uM; type: cell-based; parameters: scale not given: the % may be the effect or the level left; settings: human gammaherpesvirus 4
[39] = Cytotoxicity against human Raji cells assessed as viability at 1 uM in presence of TPA; type: cell-based; settings: read-out: Activity
[40] = system: NCI-H23; assay: Cytotoxicity against human NCI-H23 cells; type: functional
[41] = Cytotoxicity against human MKN1 cells; type: functional; settings: MKN-1
[42] = system: DMS-114; assay: Cytotoxicity against human DMS114 cells; type: functional
[43] = system: MKN-74; assay: Cytotoxicity against human MKN74 cells; type: functional
[44] = system: HT-29; assay: Cytotoxicity against human HT-29 cells; type: functional
[45] = system: HCT-15; assay: Cytotoxicity against human HCT15 cells; type: functional
[46] = system: MKN-45; assay: Cytotoxicity against human MKN45 cells; type: functional
[47] = system: SNB-75; assay: Cytotoxicity against human SNB75 cells; type: functional
[48] = system: MKN-28; assay: Cytotoxicity against human MKN28 cells; type: functional
[49] = system: NCI-H522; assay: Cytotoxicity against human NCI-H522 cells; type: functional
[50] = system: SF-268; assay: Cytotoxicity against human SF268 cells; type: functional
[51] = system: MCF7; assay: Cytotoxicity against human MCF7 cells; type: functional
[52] = system: OVCAR-3; assay: Cytotoxicity against human OVCAR-3 cells; type: functional
[53] = system: OVCAR-5; assay: Cytotoxicity against human OVCAR5 cells; type: functional
[54] = system: KM12; assay: Cytotoxicity against human KM12 cells; type: functional

T2 sequence (Q05655 whole entry): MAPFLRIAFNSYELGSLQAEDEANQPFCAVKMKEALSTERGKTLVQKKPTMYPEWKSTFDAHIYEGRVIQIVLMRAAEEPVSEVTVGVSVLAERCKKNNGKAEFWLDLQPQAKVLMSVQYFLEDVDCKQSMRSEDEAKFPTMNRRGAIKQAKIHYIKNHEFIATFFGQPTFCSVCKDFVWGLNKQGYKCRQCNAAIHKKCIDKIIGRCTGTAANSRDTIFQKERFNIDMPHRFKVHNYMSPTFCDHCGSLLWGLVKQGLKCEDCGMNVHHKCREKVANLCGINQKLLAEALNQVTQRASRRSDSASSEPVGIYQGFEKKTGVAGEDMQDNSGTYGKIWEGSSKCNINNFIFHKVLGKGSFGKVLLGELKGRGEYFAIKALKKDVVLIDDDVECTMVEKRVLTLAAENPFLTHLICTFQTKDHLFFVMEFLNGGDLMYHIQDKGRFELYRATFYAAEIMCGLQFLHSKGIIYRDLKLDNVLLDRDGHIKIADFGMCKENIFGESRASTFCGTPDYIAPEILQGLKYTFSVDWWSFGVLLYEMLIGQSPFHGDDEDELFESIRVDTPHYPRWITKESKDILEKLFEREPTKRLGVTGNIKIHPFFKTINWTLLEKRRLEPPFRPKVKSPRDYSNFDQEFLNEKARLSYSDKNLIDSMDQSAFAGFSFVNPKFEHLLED
Sequence of Protein kinase C eta type (P24723 whole entry): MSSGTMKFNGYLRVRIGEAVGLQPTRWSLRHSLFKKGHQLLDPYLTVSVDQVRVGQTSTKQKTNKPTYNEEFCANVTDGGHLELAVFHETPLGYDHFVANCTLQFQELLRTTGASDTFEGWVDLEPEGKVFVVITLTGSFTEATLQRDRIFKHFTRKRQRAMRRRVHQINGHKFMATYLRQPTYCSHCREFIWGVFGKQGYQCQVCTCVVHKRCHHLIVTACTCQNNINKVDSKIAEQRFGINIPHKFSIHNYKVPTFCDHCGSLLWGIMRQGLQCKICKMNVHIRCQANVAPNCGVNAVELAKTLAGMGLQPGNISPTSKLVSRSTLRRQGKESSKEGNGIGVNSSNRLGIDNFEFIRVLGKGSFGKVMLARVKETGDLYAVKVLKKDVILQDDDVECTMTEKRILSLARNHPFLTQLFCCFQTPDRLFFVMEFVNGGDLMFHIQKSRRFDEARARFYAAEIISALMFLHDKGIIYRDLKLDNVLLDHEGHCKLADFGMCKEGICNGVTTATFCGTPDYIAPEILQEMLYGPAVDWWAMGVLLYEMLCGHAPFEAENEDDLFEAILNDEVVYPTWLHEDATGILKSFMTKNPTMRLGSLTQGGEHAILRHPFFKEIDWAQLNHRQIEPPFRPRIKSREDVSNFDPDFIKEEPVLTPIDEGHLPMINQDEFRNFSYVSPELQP
Sequence of Protein kinase C beta type (P05771 whole entry): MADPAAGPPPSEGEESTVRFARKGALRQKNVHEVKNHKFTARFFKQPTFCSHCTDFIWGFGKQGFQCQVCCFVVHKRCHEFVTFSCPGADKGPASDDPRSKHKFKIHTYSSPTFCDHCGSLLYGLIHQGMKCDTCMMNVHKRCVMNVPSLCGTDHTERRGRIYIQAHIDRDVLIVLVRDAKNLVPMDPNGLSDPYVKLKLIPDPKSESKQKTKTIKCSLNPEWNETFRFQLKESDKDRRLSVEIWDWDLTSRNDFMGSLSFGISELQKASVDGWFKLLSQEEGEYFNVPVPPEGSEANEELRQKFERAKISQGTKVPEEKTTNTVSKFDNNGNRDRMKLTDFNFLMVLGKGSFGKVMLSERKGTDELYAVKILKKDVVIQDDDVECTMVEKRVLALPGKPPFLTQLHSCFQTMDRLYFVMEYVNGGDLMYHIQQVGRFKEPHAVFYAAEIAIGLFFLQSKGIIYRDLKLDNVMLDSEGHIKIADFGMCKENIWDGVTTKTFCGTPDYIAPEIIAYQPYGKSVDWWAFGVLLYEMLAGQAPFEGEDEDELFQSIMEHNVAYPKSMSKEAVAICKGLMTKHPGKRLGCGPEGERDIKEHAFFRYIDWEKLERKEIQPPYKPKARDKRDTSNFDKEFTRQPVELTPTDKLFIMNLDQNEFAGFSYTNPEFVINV
Sequence of Protein kinase C theta type (Q04759 whole entry): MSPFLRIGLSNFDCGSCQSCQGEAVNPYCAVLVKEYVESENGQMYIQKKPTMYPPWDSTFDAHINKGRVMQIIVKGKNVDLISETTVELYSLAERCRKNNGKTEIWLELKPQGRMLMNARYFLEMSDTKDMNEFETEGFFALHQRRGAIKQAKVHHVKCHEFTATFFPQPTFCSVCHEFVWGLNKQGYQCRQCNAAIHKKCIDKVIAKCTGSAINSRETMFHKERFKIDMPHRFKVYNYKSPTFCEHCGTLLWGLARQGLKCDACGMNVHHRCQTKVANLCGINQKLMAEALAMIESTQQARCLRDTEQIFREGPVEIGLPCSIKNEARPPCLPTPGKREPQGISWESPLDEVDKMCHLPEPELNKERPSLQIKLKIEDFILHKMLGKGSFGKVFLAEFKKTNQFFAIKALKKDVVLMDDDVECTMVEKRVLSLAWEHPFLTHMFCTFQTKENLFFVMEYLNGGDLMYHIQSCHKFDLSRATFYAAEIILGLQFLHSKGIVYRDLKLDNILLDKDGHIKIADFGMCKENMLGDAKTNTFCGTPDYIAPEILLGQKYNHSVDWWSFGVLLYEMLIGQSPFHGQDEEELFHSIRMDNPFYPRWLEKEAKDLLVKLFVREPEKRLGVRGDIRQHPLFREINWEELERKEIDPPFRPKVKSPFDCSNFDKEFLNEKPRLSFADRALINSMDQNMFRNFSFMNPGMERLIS

CC1(C)CC[C@@H]2CC(=O)O[C@@H](CO)CC(=O)O[C@@H]3C[C@@H](CCCCc4ccccc4)O[C@@]1(C3)O2
GI50 [1]: 13.8 µM | GI50 [2]: 10.5 µM | Activity [3]: 9.7% | GI50 [4]: 17 µM | GI50 [5]: 15.1 µM | Ki [6]: 0.037 µM | Ki [7]: 0.12 µM | GI50 [8]: 0.891 µM | GI50 [9]: 11.5 µM | Ki [10]: 0.13 µM | Ki [11]: 0.0098 µM | GI50 [12]: 17.8 µM | GI50 [13]: 3.24 µM | GI50 [14]: 2.95 µM | GI50 [15]: 12 µM | GI50 [16]: 6.76 µM | Ki [17]: 0.08 µM | GI50 [18]: 1.48 µM | Activity [19]: 15.2% | viability at 0.1 µM [20]: 60% | Activity [21]: 10.5% | Ki [22]: 0.14 µM | GI50 [23]: 11.5 µM | viability at 1 µM [24]: 60% | Ki [25]: 0.0081 µM | GI50 [26]: 12.3 µM | GI50 [27]: 12.3 µM | viability at 0.1 µM [28]: 60% | Ki [29]: 0.012 µM | GI50 [30]: 0.525 µM | GI50 [31]: 2.14 µM | GI50 [32]: 7.24 µM | GI50 [33]: 6.76 µM | GI50 [34]: 5.5 µM | GI50 [35]: 10 µM | GI50 [36]: 10.5 µM | GI50 [37]: 15.8 µM | Activity [38]: 13.1% | viability at 1 µM [39]: 60% | GI50 [40]: 11.2 µM | GI50 [41]: 12.6 µM | GI50 [42]: 14.1 µM | GI50 [43]: 14.8 µM | GI50 [44]: 11.2 µM | GI50 [45]: 16.6 µM | GI50 [46]: 0.813 µM | GI50 [47]: 12 µM | GI50 [48]: 16.6 µM | GI50 [49]: 13.2 µM | GI50 [50]: 12.9 µM | GI50 [51]: 16.2 µM | GI50 [52]: 13.5 µM | GI50 [53]: 11 µM

CC1(C)CC[C@@H]2CC(=O)O[C@@H](CO)CC(=O)O[C@@H]3C[C@@H](CCCCc4cccc(O)c4)O[C@@]1(C3)O2
GI50 [1]: 16.2 µM | GI50 [2]: 10.7 µM | Activity [3]: 9.4% | GI50 [4]: 20.4 µM | GI50 [5]: 17.8 µM | Ki [6]: 0.025 µM | Ki [7]: 0.063 µM | GI50 [8]: 2.82 µM | GI50 [9]: 16.6 µM | Ki [10]: 0.14 µM | Ki [11]: 0.0074 µM | GI50 [12]: 19.5 µM | GI50 [13]: 4.79 µM | GI50 [14]: 3.72 µM | GI50 [15]: 14.1 µM | GI50 [16]: 1.82 µM | Ki [17]: 0.039 µM | GI50 [18]: 2.51 µM | Activity [19]: 10.1% | viability at 0.1 µM [20]: 60% | Activity [21]: 10.4% | Ki [22]: 0.089 µM | GI50 [23]: 15.5 µM | viability at 1 µM [24]: 60% | Ki [25]: 0.004 µM | GI50 [26]: 14.8 µM | GI50 [27]: 16.2 µM | viability at 0.1 µM [28]: 60% | Ki [29]: 0.0044 µM | GI50 [30]: 0.468 µM | GI50 [31]: 2.45 µM | GI50 [32]: 8.71 µM | GI50 [33]: 13.5 µM | GI50 [34]: 11 µM | GI50 [35]: 12 µM | GI50 [36]: 12.6 µM | GI50 [37]: 19.1 µM | Activity [38]: 7.5% | viability at 1 µM [39]: 60% | GI50 [40]: 13.2 µM | GI50 [41]: 13.8 µM | GI50 [42]: 16.2 µM | GI50 [43]: 17.4 µM | GI50 [44]: 17 µM | GI50 [45]: 17.4 µM | GI50 [46]: 4.68 µM | GI50 [47]: 15.8 µM | GI50 [54]: 13.8 µM | GI50 [48]: 18.2 µM | GI50 [49]: 13.5 µM | GI50 [50]: 14.8 µM | GI50 [51]: 19.1 µM | GI50 [52]: 16.6 µM | GI50 [53]: 11.2 µM

CCC/C=C/C=C/C(=O)O[C@H]1/C(=C/C(=O)OC)C[C@H]2C[C@H]([C@@H](C)O)OC(=O)C[C@H](O)C[C@@H]3C[C@H](OC(C)=O)C(C)(C)[C@](O)(C[C@@H]4C/C(=C/C(=O)OC)C[C@H](/C=C/C(C)(C)[C@]1(O)O2)O4)O3 [BRYOSTATIN 1]
Activity [3]: 1.4% | GI50 [13]: 6.31 µM | GI50 [14]: 5.01 µM | GI50 [18]: 2.51 µM | Activity [19]: 6.8% | viability at 0.1 µM [20]: 60% | Activity [21]: 2% | viability at 1 µM [24]: 40% | viability at 0.1 µM [28]: 60% | GI50 [31]: 6.31 µM | GI50 [32]: 6.31 µM | GI50 [34]: 5.01 µM | Activity [38]: 5% | viability at 1 µM [39]: 40%
